According to the supplement of paper PMC12463676, “Small-molecule dissolution of stress granules by redox modulation benefits ALS models” (Nature Chemical Biology, 2025):

What follows are targets tested with NC(=O)CCCCC1CCSS1 [lipoamide] (assay: thermal stability z-score vs DMSO; higher = more thermally stabilized by treatment). Settings: HeLa; lipoamide concentration 100 µM; arsenate co-treatment: 1 mM arsenate 1 h.
Description: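 Cellular thermal proteome profiling in HeLa cells. Cells were treated with 100 µM lipoamide for 1 h, with or without 1 mM arsenate for a further 1 h, then heated to ten temperatures (37-66.3 °C), and soluble protein was quantified by TMT mass spectrometry relative to 0.1% DMSO controls. The thermal stability score (sum of log2 fold changes minus the abundance score) was transformed to a z-score; mean of n = 3 experiments.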
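Further: each temperature applied for 3 min, abundance score taken as mean log2 fold change at the two lowest temperatures, z-score obtained by mean subtraction and division by SD.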

Chain of UniProt Q7L775 (Q7L775 whole entry): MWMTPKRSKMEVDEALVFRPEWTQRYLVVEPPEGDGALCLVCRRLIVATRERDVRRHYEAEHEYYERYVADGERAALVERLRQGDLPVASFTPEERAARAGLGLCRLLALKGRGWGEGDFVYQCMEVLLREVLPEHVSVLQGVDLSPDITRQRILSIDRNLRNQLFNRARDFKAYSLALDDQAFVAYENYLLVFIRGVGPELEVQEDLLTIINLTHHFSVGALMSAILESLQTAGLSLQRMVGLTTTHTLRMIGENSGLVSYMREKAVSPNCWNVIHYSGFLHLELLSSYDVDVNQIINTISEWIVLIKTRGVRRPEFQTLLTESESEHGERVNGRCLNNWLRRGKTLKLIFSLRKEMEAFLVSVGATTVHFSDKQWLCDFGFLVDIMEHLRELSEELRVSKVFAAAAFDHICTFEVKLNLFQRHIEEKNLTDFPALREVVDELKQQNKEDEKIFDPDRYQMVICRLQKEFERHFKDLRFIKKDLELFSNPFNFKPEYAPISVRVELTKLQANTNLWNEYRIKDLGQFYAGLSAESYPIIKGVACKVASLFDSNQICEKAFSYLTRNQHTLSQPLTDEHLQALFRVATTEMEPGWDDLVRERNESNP
Chain of UniProt Q9Y5Z9 (Q9Y5Z9 whole entry): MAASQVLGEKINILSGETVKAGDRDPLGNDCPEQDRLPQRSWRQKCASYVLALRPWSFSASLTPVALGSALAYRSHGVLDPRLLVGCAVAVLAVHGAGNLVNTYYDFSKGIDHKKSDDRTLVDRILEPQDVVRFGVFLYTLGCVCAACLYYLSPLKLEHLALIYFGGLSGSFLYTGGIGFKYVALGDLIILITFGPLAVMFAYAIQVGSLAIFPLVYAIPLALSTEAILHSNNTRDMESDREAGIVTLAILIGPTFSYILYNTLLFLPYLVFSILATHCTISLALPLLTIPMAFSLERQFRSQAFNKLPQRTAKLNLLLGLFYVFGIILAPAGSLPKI
Chain of UniProt Q7Z7E8 (Q7Z7E8 whole entry): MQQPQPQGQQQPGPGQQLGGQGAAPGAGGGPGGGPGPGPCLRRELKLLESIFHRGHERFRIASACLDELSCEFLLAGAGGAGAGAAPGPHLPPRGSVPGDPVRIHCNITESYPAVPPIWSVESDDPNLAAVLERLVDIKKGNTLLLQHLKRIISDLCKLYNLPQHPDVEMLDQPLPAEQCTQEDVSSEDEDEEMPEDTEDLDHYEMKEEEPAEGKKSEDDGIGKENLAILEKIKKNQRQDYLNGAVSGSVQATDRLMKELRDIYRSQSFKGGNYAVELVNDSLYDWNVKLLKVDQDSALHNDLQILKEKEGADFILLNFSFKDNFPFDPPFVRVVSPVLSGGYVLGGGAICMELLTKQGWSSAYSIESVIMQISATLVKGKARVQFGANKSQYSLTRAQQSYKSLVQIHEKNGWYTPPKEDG
Chain of UniProt Q9BWD1 (Q9BWD1 whole entry): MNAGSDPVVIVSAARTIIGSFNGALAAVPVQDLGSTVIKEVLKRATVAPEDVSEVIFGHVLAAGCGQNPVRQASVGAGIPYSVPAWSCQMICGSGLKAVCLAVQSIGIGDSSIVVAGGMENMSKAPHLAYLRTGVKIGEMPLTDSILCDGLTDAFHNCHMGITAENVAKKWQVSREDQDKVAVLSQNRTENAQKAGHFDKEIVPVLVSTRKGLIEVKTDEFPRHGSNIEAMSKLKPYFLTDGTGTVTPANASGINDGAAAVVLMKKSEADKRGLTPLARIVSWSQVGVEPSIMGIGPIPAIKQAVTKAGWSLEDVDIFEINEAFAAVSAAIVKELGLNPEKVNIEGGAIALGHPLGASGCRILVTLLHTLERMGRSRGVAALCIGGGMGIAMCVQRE
Chain of UniProt Q68E01 (Q68E01 whole entry): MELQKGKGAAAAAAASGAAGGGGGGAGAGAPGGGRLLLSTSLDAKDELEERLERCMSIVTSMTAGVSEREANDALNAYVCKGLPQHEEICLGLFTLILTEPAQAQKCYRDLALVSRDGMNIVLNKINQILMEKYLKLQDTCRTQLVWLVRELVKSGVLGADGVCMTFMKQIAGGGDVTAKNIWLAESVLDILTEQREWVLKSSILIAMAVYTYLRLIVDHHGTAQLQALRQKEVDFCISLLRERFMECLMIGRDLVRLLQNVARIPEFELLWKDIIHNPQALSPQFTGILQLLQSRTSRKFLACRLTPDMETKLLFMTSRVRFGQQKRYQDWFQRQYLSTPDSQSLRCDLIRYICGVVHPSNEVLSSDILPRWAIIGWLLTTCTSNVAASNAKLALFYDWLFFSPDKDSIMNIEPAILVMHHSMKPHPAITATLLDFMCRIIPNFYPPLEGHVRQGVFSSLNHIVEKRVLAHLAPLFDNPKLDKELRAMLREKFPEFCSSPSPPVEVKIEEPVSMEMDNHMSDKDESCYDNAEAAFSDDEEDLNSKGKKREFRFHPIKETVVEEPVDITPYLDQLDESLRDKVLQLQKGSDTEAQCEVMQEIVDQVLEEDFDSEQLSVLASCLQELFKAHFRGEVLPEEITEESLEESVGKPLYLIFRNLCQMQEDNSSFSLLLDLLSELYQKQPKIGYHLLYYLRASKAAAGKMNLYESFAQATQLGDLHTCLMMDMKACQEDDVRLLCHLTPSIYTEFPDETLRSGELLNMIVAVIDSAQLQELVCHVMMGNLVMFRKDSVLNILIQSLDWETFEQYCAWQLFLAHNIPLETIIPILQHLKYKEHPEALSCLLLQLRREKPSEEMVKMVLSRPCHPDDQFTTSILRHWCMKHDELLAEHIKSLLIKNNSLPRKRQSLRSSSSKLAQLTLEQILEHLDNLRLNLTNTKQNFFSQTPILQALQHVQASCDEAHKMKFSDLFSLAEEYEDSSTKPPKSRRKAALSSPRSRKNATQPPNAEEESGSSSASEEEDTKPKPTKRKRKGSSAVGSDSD
Chain of UniProt Q96ND0 (Q96ND0 whole entry): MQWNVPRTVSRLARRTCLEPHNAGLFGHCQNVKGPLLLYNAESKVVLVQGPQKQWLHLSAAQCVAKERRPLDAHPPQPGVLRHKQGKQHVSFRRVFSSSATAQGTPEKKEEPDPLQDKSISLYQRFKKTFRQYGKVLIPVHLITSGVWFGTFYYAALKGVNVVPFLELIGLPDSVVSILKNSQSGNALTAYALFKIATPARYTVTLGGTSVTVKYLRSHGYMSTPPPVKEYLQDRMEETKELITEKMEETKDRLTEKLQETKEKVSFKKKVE
Chain of UniProt A2RU67 (A2RU67 whole entry): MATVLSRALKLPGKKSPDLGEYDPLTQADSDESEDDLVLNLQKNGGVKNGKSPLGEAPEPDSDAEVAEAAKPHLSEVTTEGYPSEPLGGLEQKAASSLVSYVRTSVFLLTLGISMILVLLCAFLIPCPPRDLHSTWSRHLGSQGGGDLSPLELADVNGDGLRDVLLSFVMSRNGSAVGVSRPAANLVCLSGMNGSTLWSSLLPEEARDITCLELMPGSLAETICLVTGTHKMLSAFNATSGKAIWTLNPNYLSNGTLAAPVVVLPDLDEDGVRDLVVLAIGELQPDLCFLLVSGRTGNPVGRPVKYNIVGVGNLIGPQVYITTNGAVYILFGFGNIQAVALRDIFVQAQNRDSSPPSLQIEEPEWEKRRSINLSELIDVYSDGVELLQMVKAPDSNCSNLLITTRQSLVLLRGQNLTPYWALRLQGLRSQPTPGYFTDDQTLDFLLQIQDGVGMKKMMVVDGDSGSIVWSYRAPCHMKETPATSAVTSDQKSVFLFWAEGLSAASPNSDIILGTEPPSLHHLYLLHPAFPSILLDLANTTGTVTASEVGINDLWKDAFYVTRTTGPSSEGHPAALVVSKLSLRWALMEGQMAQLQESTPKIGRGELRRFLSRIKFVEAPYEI
Chain of UniProt Q96KP4 (Q96KP4 whole entry): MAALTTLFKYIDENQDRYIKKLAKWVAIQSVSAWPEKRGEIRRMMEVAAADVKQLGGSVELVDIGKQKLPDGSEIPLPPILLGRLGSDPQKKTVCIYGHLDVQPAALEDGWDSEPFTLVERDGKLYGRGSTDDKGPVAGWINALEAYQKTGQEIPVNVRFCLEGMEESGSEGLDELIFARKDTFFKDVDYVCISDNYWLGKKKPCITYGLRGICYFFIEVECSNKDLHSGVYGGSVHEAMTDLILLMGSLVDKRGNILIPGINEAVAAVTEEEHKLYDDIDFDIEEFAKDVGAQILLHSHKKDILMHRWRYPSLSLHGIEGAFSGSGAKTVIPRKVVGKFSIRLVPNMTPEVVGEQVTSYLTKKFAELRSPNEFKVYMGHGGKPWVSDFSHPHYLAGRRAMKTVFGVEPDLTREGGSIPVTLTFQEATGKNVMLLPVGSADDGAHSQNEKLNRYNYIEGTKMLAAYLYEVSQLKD
Chain of UniProt P85037 (P85037 whole entry): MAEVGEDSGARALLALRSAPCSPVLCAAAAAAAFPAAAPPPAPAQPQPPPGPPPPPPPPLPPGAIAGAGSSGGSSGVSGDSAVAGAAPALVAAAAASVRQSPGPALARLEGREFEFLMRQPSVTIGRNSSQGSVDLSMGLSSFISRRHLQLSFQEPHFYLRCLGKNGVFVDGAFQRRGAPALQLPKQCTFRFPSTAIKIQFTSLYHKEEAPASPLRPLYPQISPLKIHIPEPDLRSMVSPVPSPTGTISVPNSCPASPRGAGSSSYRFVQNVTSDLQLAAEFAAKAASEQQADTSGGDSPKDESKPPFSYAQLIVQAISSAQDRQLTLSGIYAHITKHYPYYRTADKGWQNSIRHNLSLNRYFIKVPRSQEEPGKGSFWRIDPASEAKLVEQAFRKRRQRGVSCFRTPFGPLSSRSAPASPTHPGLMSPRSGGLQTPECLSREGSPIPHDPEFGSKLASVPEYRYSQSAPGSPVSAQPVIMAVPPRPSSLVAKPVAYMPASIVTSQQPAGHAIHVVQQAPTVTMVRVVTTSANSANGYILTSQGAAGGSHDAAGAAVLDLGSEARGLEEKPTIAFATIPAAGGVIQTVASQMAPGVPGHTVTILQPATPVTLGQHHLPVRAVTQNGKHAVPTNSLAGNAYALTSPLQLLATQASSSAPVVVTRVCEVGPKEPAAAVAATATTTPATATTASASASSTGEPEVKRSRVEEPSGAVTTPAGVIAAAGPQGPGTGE

Question: With ATP5J (UniProt P18859) as the target, how does the thermal stability z-score read?
Answer: The thermal stability z-score was 2.44.

Question: With PIK3R2 (UniProt O00459) as the target, how does the thermal stability z-score read?
Answer: Its thermal stability z-score is -0.263.

Question: How did the thermal stability z-score turn out when NCBP1 (UniProt Q09161) was run?
Answer: The thermal stability z-score was 0.353.

Question: Which thermal stability z-score does the source give for TNKS1BP1 (UniProt Q9C0C2) here?
Answer: Its thermal stability z-score is -0.0132.

Question: EIF3I (UniProt Q13347) was tested. Which thermal stability z-score did it give?
Answer: Its thermal stability z-score is 0.544.

Question: Which thermal stability z-score does the source give for STUB1 (UniProt Q9UNE7) here?
Answer: The thermal stability z-score was -0.065.

Question: Which thermal stability z-score does the source give for ARHGAP29 (UniProt Q52LW3) here?
Answer: Its thermal stability z-score is -0.215.

Question: EPM2AIP1 (UniProt Q7L775) was tested. Which thermal stability z-score did it give?
Answer: The thermal stability z-score was -0.0474.

Question: How did the thermal stability z-score turn out when GTF2H2|GTF2H2C was run?
Answer: Its thermal stability z-score is 0.00796.

Question: For ERBB2IP (UniProt Q96RT1), which thermal stability z-score is on record?
Answer: The thermal stability z-score was 0.354.

Question: For NUDC (UniProt Q9Y266), which thermal stability z-score is on record?
Answer: Its thermal stability z-score is 0.104.

Question: How did the thermal stability z-score turn out when SLC9A3R2 (UniProt Q15599) was run?
Answer: The thermal stability z-score was -0.0651.

Question: ACAT2 (UniProt Q9BWD1) was tested. Which thermal stability z-score did it give?
Answer: Its thermal stability z-score is -0.0152.

Question: With MOV10 (UniProt Q9HCE1) as the target, how does the thermal stability z-score read?
Answer: Its thermal stability z-score is -0.0627.

Question: INTS3 (UniProt Q68E01) was tested. Which thermal stability z-score did it give?
Answer: Its thermal stability z-score is -0.121.

Question: UBIAD1 (UniProt Q9Y5Z9) was tested. Which thermal stability z-score did it give?
Answer: Its thermal stability z-score is -0.487.

Question: Which thermal stability z-score does the source give for FOXK1 (UniProt P85037) here?
Answer: Its thermal stability z-score is 0.345.

Question: With CCDC25 (UniProt Q86WR0) as the target, how does the thermal stability z-score read?
Answer: The thermal stability z-score was 0.415.

Question: How did the thermal stability z-score turn out when SPTBN1 (UniProt Q01082) was run?
Answer: Its thermal stability z-score is 0.502.

Question: Which thermal stability z-score does the source give for OGFOD1 (UniProt Q8N543) here?
Answer: Its thermal stability z-score is 0.312.

Question: CORO1C (UniProt Q9ULV4) was tested. Which thermal stability z-score did it give?
Answer: The thermal stability z-score was -1.05.

Question: With COG6 (UniProt Q9Y2V7) as the target, how does the thermal stability z-score read?
Answer: The thermal stability z-score was -0.00556.

Question: Which thermal stability z-score does the source give for FAM234B (UniProt A2RU67) here?
Answer: Its thermal stability z-score is -0.257.

Question: For FAM210A (UniProt Q96ND0), which thermal stability z-score is on record?
Answer: Its thermal stability z-score is -0.412.

Question: For TTC5 (UniProt Q8N0Z6), which thermal stability z-score is on record?
Answer: Its thermal stability z-score is -0.0841.

Question: UBE2Q1 (UniProt Q7Z7E8) was tested. Which thermal stability z-score did it give?
Answer: Its thermal stability z-score is -0.546.

Question: With CNDP2 (UniProt Q96KP4) as the target, how does the thermal stability z-score read?
Answer: Its thermal stability z-score is 0.517.

Question: With PLEKHO2 (UniProt Q8TD55) as the target, how does the thermal stability z-score read?
Answer: Its thermal stability z-score is 0.146.

Same assay, conditions: HeLa; lipoamide concentration 100 µM; arsenate co-treatment: none

Question: SLC1A4 (UniProt P43007) was tested. Which thermal stability z-score did it give?
Answer: Its thermal stability z-score is -0.485.

Question: With TCF3 (UniProt P15923) as the target, how does the thermal stability z-score read?
Answer: The thermal stability z-score was -0.0941.

Question: For NEDD4L (UniProt Q96PU5), which thermal stability z-score is on record?
Answer: Its thermal stability z-score is -0.354.

Question: With GTF3C5 (UniProt Q9Y5Q8) as the target, how does the thermal stability z-score read?
Answer: The thermal stability z-score was 0.0127.

Question: With KIF11 (UniProt P52732) as the target, how does the thermal stability z-score read?
Answer: Its thermal stability z-score is 0.00677.

Question: DISP1 (UniProt Q96F81) was tested. Which thermal stability z-score did it give?
Answer: The thermal stability z-score was 0.512.

Question: For PDXDC1 (UniProt Q6P996), which thermal stability z-score is on record?
Answer: Its thermal stability z-score is -0.497.

Question: Which thermal stability z-score does the source give for MRPL41 (UniProt Q8IXM3) here?
Answer: The thermal stability z-score was 0.303.

Question: For TANC2 (UniProt Q9HCD6), which thermal stability z-score is on record?
Answer: The thermal stability z-score was -0.116.

Question: RBBP6 (UniProt Q7Z6E9) was tested. Which thermal stability z-score did it give?
Answer: Its thermal stability z-score is -0.0854.

Question: For GLCCI1 (UniProt Q86VQ1), which thermal stability z-score is on record?
Answer: The thermal stability z-score was -0.418.

Question: For RABAC1 (UniProt Q9UI14), which thermal stability z-score is on record?
Answer: The thermal stability z-score was -0.0907.

Question: How did the thermal stability z-score turn out when ARPC5L (UniProt Q9BPX5) was run?
Answer: Its thermal stability z-score is -0.00985.

Question: Which thermal stability z-score does the source give for SLC1A3 (UniProt P43003) here?
Answer: The thermal stability z-score was 0.124.

Question: For FER (UniProt P16591), which thermal stability z-score is on record?
Answer: Its thermal stability z-score is 0.182.

Question: Which thermal stability z-score does the source give for TMEM41B (UniProt Q5BJD5) here?
Answer: Its thermal stability z-score is 0.188.

Question: How did the thermal stability z-score turn out when NRDE2 (UniProt Q9H7Z3) was run?
Answer: The thermal stability z-score was 0.0451.

Question: C8ORF82 (UniProt Q6P1X6) was tested. Which thermal stability z-score did it give?
Answer: Its thermal stability z-score is -0.151.

Question: RUFY2 (UniProt Q8WXA3) was tested. Which thermal stability z-score did it give?
Answer: Its thermal stability z-score is -0.0853.

Question: With CCDC97 (UniProt Q96F63) as the target, how does the thermal stability z-score read?
Answer: The thermal stability z-score was 0.225.

Question: RAD21 (UniProt O60216) was tested. Which thermal stability z-score did it give?
Answer: The thermal stability z-score was 0.377.

Question: For NSMAF (UniProt Q92636), which thermal stability z-score is on record?
Answer: The thermal stability z-score was -0.458.

Question: How did the thermal stability z-score turn out when GPKOW (UniProt Q92917) was run?
Answer: Its thermal stability z-score is 0.0635.

Question: With CCZ1B|CCZ1 as the target, how does the thermal stability z-score read?
Answer: Its thermal stability z-score is 0.0817.

Question: Which thermal stability z-score does the source give for THRAP3 (UniProt Q9Y2W1) here?
Answer: Its thermal stability z-score is 0.438.

Question: With EARS2 (UniProt Q5JPH6) as the target, how does the thermal stability z-score read?
Answer: The thermal stability z-score was -0.188.

Question: RAB29 (UniProt O14966) was tested. Which thermal stability z-score did it give?
Answer: Its thermal stability z-score is -0.0606.

Question: With ATP5J (UniProt P18859) as the target, how does the thermal stability z-score read?
Answer: Its thermal stability z-score is 1.93.

Question: How did the thermal stability z-score turn out when PIK3R2 (UniProt O00459) was run?
Answer: The thermal stability z-score was 0.416.

Question: How did the thermal stability z-score turn out when NCBP1 (UniProt Q09161) was run?
Answer: The thermal stability z-score was 0.393.

Question: TNKS1BP1 (UniProt Q9C0C2) was tested. Which thermal stability z-score did it give?
Answer: Its thermal stability z-score is 0.146.

Question: EIF3I (UniProt Q13347) was tested. Which thermal stability z-score did it give?
Answer: Its thermal stability z-score is 0.0305.

Question: With STUB1 (UniProt Q9UNE7) as the target, how does the thermal stability z-score read?
Answer: Its thermal stability z-score is -0.23.

Question: For ARHGAP29 (UniProt Q52LW3), which thermal stability z-score is on record?
Answer: Its thermal stability z-score is -0.998.

Question: Which thermal stability z-score does the source give for EPM2AIP1 (UniProt Q7L775) here?
Answer: The thermal stability z-score was 0.0432.

Question: For GTF2H2|GTF2H2C, which thermal stability z-score is on record?
Answer: Its thermal stability z-score is -0.0811.

Question: How did the thermal stability z-score turn out when ERBB2IP (UniProt Q96RT1) was run?
Answer: Its thermal stability z-score is -0.307.

Question: How did the thermal stability z-score turn out when NUDC (UniProt Q9Y266) was run?
Answer: The thermal stability z-score was 0.205.

Question: For SLC9A3R2 (UniProt Q15599), which thermal stability z-score is on record?
Answer: The thermal stability z-score was 0.332.

Question: How did the thermal stability z-score turn out when ACAT2 (UniProt Q9BWD1) was run?
Answer: The thermal stability z-score was 6.3e-05.

Question: With MOV10 (UniProt Q9HCE1) as the target, how does the thermal stability z-score read?
Answer: The thermal stability z-score was 0.31.

Question: How did the thermal stability z-score turn out when INTS3 (UniProt Q68E01) was run?
Answer: The thermal stability z-score was -0.0169.

Question: How did the thermal stability z-score turn out when UBIAD1 (UniProt Q9Y5Z9) was run?
Answer: Its thermal stability z-score is -0.317.

Question: With FOXK1 (UniProt P85037) as the target, how does the thermal stability z-score read?
Answer: Its thermal stability z-score is -0.0499.

Question: CCDC25 (UniProt Q86WR0) was tested. Which thermal stability z-score did it give?
Answer: Its thermal stability z-score is 0.668.

Question: Which thermal stability z-score does the source give for SPTBN1 (UniProt Q01082) here?
Answer: Its thermal stability z-score is 0.309.

Question: With OGFOD1 (UniProt Q8N543) as the target, how does the thermal stability z-score read?
Answer: Its thermal stability z-score is -0.342.

Question: For CORO1C (UniProt Q9ULV4), which thermal stability z-score is on record?
Answer: Its thermal stability z-score is -0.614.

Question: With COG6 (UniProt Q9Y2V7) as the target, how does the thermal stability z-score read?
Answer: Its thermal stability z-score is -0.0575.

Question: Which thermal stability z-score does the source give for FAM234B (UniProt A2RU67) here?
Answer: Its thermal stability z-score is -0.241.

Question: How did the thermal stability z-score turn out when FAM210A (UniProt Q96ND0) was run?
Answer: The thermal stability z-score was -0.508.

Question: TTC5 (UniProt Q8N0Z6) was tested. Which thermal stability z-score did it give?
Answer: The thermal stability z-score was 0.0677.

Question: For UBE2Q1 (UniProt Q7Z7E8), which thermal stability z-score is on record?
Answer: Its thermal stability z-score is -0.425.

Question: Which thermal stability z-score does the source give for CNDP2 (UniProt Q96KP4) here?
Answer: The thermal stability z-score was 0.0712.

Question: Which thermal stability z-score does the source give for PLEKHO2 (UniProt Q8TD55) here?
Answer: Its thermal stability z-score is 0.015.
